According to US10239847B1, “Method for 2-oxothiazolidine-4-carboxylic acid for cellular glutathione” (JBP Group LLC, priority 2016, dated 2019):
Entries after “also recorded” stand apart in the source; their conditions may differ. Where two headings read alike, the source gives them in different places.

How the values were obtained:
liver glutathione levels = settings: fasted mice, dietary supplementation; cited from earlier work
Human HIV patients [1] = test: Clinical: oral daily for 6 months, HIV patients; type: in vivo; settings: compared to human oral, suggested human oral dose 25 mg/kg/day
Excerpt: (§1) The following tables are a compilation of known results and estimates of NOAEL/LOAEL for various animal species and humans. […] In addition, genetic toxicity studies, Ames Test, Chromosome Aberration, and Mouse Micronucleus have been conducted and all of these studies were negative for genetic toxicity (i.e. non-genotoxic).
(§2) The following is a compilation of known results and estimates of NOAEL/LOAEL for various animal species and humans.

Dog [2] = test: Single IV toxicity (NOAEL/LOAEL), dog; type: in vivo; settings: compared to IV dog, suggested human oral dose 0.025 g/kg
Excerpt: as §1, §2

Human HIV patients [3] = test: Clinical: single IV then six biweekly infusions, 13 administrations, HIV patients; type: in vivo; settings: compared to human IV; suggested human oral dose 25 mg/kg/day
Excerpt: as §1, §2

Human HIV patients [4] = settings: oral ≥25 mg/kg daily for 1 week, highest dose tested; cited from earlier work
[5] = system: glutathione in rat lungs and leukocytes; settings: sulfur amino acid deficient rat diets, supplementation; cited from earlier work
human [6] = settings: cited from earlier work
Rat [7] = test: Single IV toxicity (NOAEL/LOAEL), rat; type: in vivo; settings: compared to IV rat, suggested human oral dose 0.025 g/kg
Excerpt: as §1, §2

Rat [8] = settings: in vivo, iv; cited from earlier work
dogs [9] = settings: dog, in vivo; cited from earlier work
Human HIV patients [10] = test: Clinical: single oral dose then 3000, 4500, 9000 mg/day for 28 days, HIV patients; type: in vivo; settings: compared to human oral, suggested human oral dose 25 mg/kg/day
Excerpt: as §1, §2

Human HIV patients [11] = test: Clinical: oral ≥25 mg/kg daily for 1 week, HIV patients; type: in vivo; settings: compared to human oral, suggested human oral dose 25 mg/kg/day
Excerpt: as §1, §2

[12] = system: cellular glutathione levels; settings: glutathione-depleting agents administered to otherwise healthy animals; cited from earlier work
Human HIV patients [13] = settings: single IV then six biweekly infusions, 13 administrations, highest dose tested; cited from earlier work
Dog [14] = settings: in vivo, iv; cited from earlier work
dogs [15] = test: Acute and repeat intravenous NOAEL in dogs; type: in vivo; settings: recommended daily intake 1.75 g (~25 mg/kg) compared to dog IV NOAEL
Procedure: (§3) Utilizing animal (dog and rat) data and comparing that to the recommended daily procysteine (Cellactin) intake of 1.75 g or ˜25 mg/kg, that represents 18× to 96× safety margin compared to acute no adverse effect level (NOAEL) and repeat NOAEL intravenous administration in dogs (450 mg/kg) and rats (2400 mg/kg), respectively. The safety margin may be even greater if compared to animal oral administration data.
(§4) Acute NOAEL and repeat NOAEL for intravenous administration in dogs was 450 mg/kg and in rats was 2400 mg/kg, with these values representing the highest dosages intravenously tested and it is assumed that the NOAEL levels would be even higher for oral administration in animals. […] Therefore, it is reasonable to expect that a recommended human oral, daily procysteine (Cellactin) intake of 1.75 grams will be safe and an acceptable daily intake of up to 9 grams orally could also be considered safe.

rats [16] = settings: rat, in vivo; cited from earlier work
[17] = system: tissue glutathione levels; settings: rodent brains; cited from earlier work
[18] = system: tissue glutathione levels; settings: acutely septic rats; cited from earlier work
Rat [19] = test: Once daily IV for 28 days, rat; type: in vivo; settings: compared to IV rat, suggested human oral dose 0.025 g/kg
Excerpt: as §1, §2

Dog [20] = settings: in vivo, iv; cited from earlier work; remark: listed apart in the source
Human HIV patients [21] = test: Clinical: orally up to 9000 mg/day for 2 years, HIV patients; type: in vivo
Rat, neonate = settings: in vivo, iv; cited from earlier work
Mouse [22] = settings: in vivo, iv; cited from earlier work
Human ARDS patients [23] = test: Clinical: IV 63 mg/kg every 8 hours for 10 days, ARDS patients; type: in vivo; settings: compared to IV human (ARDS); suggested human oral dose 25 mg/kg/day
Excerpt: as §1, §2

Mouse [24] = settings: in vivo; cited from earlier work
human [25] = test: Human intravenous NOAEL calculations; type: in vivo; settings: oral daily intake 1.75 grams compared to human intravenous NOAEL calculations
Excerpt: (§5) This would then result in an EDI/ADI ratio of 9 grams/day/9 grams/day=1. Without knowing the NOAEL or LOAEL for humans it is difficult to determine a true estimate of margin of safety. […] However, it would be reasonable to assume that a much higher estimate of safety margin would be expected based on the 4-8× estimate comparing oral, daily Procysteine (Cellactin) intake of 1.75 grams to human intravenous NOAEL calculations shown above in section 4.1 and 18 or 96× comparing to dog and rat intravenous NOAEL calculations, respectively shown above in Section 4.1. It is reasonable to conclude that the safety margin would be even greater if compared to animal oral administration data.
as §5, with “Without” for “This would then result in an EDI/ADI ratio of 9 grams/day/9 grams/day=1. Without”

[26] = Shelf life / purity stability of Cellactin; type: physicochemical
Excerpt: FIG. 9 illustrates Cellactin shelf life estimation by extrapolation. As depicted that upper dotted line indicates an upper acceptance of 100 percent stability. The lower dotted line indicates 99 percent stability. The solid line represents the extrapolation line with the triangles representing raw data. The product has been extrapolated to be stable for 2 years as supplied if stored in original package at ambient temperature and protected from heat and moisture. […] Confirmation of extrapolation assumes the change pattern may continue to fit model for at least 24 months.

Dog [27] = test: Once daily IV for 28 days, dog; type: in vivo; settings: compared to IV dog, suggested human oral dose 0.025 g/kg
Excerpt: as §1, §2

patients with ARDS [28] = settings: first Phase II trial, 32 ARDS patients, IV; cited from earlier work
[29] = system: intracellular levels of glutathione; settings: preclinical studies; cited from earlier work
Human ARDS patients [30] = settings: IV every 8 hours for 10 days, highest dose tested, cited from earlier work
Mouse [31] = test: Single IV toxicity (NOAEL/LOAEL), mouse; type: in vivo; settings: printed 'compared to IV rat', suggested human oral dose 0.025 g/kg
Excerpt: as §1, §2

blood glutathione levels = settings: human, oral 25-129 mg/kg (1.75-9 g/day), dose response manner; cited from earlier work
rats [32] = test: Acute and repeat intravenous NOAEL in rats; type: in vivo; settings: recommended daily intake 1.75 g (~25 mg/kg) compared to rat IV NOAEL
Procedure: as §3, §4

patients with ARDS [33] = settings: Phase II, versus placebo; cited from earlier work
Human HIV patients [34] = settings: cited from earlier work
Rat [35] = settings: in vivo, iv; cited from earlier work; remark: listed apart in the source
[36] = human, oral, as used for the EDI/ADI ratio

O=C1N[C@H](C(=O)O)CS1 [procysteine, L-2-oxothiazolidine-4-carboxylate]
liver glutathione levels (liver glutathione levels): increased | Safety Margin Human Oral (Human HIV patients [1]): 5X compared | Safety Margin Human Oral (Dog [2]): 18× compared | Safety Margin Human Oral (Human HIV patients [3]): 4X compared | NOAEL (Human HIV patients [4]): ≥25 mg/kg/day | glutathione in rat lungs and leukocytes [5]: preserved | adverse experiences possibly related to treatment (human [6]; across all clinical trials): only minor adverse experiences | statistically significant adverse events (human [6]; human clinical trials): No statistical significant adverse events were observed | tolerability (human [6]; human clinical trials): well tolerated | tolerability (human [6]; human clinical trials, listed as procysteine (Cellactin)): generally well tolerated without observed adverse effects; also recorded: well tolerated | Safety Margin Human Oral (Rat [7]): 96× compared | NOAEL (Rat [8]): ≥2400 mg/kg | acute NOAEL and repeat NOAEL, intravenous administration (dogs [9]): 450 mg/kg | Safety Margin Human Oral (Human HIV patients [10]): 5X compared | Safety Margin Human Oral (Human HIV patients [11]): 1X compared | cellular glutathione levels [12]: maintained | NOAEL (Human HIV patients [13]): ≥100 mg/kg/day | NOAEL (Dog [14]): ≥450 mg/kg | safety margin (dogs [15]): 18 × | acute NOAEL and repeat NOAEL, intravenous administration (rats [16]): 2400 mg/kg | tissue glutathione levels [17]: increased (repleted) | tissue glutathione levels [18]: increased (repleted) | Safety Margin Human Oral (Rat [19]): 96× compared | NOAEL (Dog [20]): ≥450 mg/kg | EDI/ADI ratio (Human HIV patients [21]; 9 grams/day / 9 grams/day): 1 | Safety Margin Human Oral (Human HIV patients [21]; compared to human oral, 2 years, suggested human oral dose 25 mg/kg/day): 5X compared | ADI (Human HIV patients [21]; [36]): < 9 grams/day | estimated daily intake (EDI) (Human HIV patients [21]; [36]): < 9 grams/day | acceptable daily intake (ADI) (Human HIV patients [21]; human, oral, based on 9 grams per day for 2 years): up to 9 grams per day | safety margin (Human HIV patients [21]; recommended oral daily intake 1.75 g compared to 9 grams per day taken orally for 2 years): 5 × | NOAEL (Rat, neonate): ≥450 mg/kg | NOAEL (Mouse [22]): ≥2400 mg/kg | Safety Margin Human Oral (Human ARDS patients [23]): 8X compared | Mouse Micronucleus, genetic toxicity (Mouse [24]): negative | estimate of safety margin (human [25]): 4-8 × | shelf life (stable as supplied), by extrapolation ([26]; original package, ambient temperature, protected from heat and moisture): 2 years | purity percent change ([26]; two preparation batches, T0 to T6 (months)): No purity percent change | Safety Margin Human Oral (Dog [27]): 18× compared | independence from mechanical ventilation versus placebo (patients with ARDS [28]): a median of five days earlier | ROS damage [29]: prevent | intracellular levels of glutathione [29]: increase | NOAEL (Human ARDS patients [30]; expressed per day): ≥ 189 mg/kg/day | NOAEL (Human ARDS patients [30]): ≥63 mg/kg/8 hours | Safety Margin Human Oral (Mouse [31]): 96× compared | blood glutathione levels (blood glutathione levels): significant increase | safety margin (rats [32]): 96 × | efficiency in transporting oxygen to the blood stream (measure of lung function) (patients with ARDS [33]): to a greater degree than did placebo-treated patients | NOAEL (Human HIV patients [34]; Human HIV patients, orally up to 9000 mg/day for 2 years, highest dose tested): ≥129 mg/kg/day | changes in serum chemistry or hematology (Human HIV patients [34]; human, up to 9 grams per day orally for 2 years): without clinically significant changes | NOAEL (Rat [35]): ≥2400 mg/kg
